From the supplement of paper PMC10307832

How the values were obtained:
Test in all cases: relative viability (nuclei count vs DMSO), 5 days (fraction); higher = more cells survive
[1] = tested on: NCI-H1666
Procedure, shortened: (§1)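 Values are medians from duplicate plates. Each reflects relative viability, defined as the nuclei count of treated wells over that of vehicle wells. Lung cancer cell lines in 1536-well plates were pin-tool dosed one day after seeding with one drug alone or with a fixed anchor-drug dose plus five library-drug doses (not always all listed) in √10 steps, then fixed, stained and imaged at 4× after 5 days.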

[2] = tested on: ChaGo-K-1
Procedure, shortened: as §1

[3] = tested on: NCI-H322M
Procedure, shortened: as §1

[4] = tested on: CAL-12T
Procedure, shortened: as §1

[5] = tested on: NCI-H2170
Procedure, shortened: as §1

[6] = tested on: LC-2-ad
Procedure, shortened: as §1

[7] = tested on: NCI-H1651
Procedure, shortened: as §1

[8] = tested on: NCI-H2085
Procedure, shortened: as §1

[9] = tested on: NCI-H2342
Procedure, shortened: as §1

[10] = tested on: NCI-H2228
Procedure, shortened: as §1

[11] = tested on: NCI-H1395
Procedure, shortened: as §1

[12] = tested on: NCI-H661
Procedure, shortened: as §1

[13] = tested on: NCI-H520
Procedure, shortened: as §1

[14] = tested on: NCI-H1355
Procedure, shortened: as §1

[15] = tested on: 201T
Procedure, shortened: as §1

[16] = tested on: NCI-H647
Procedure, shortened: as §1

[17] = tested on: NCI-H2347
Procedure, shortened: as §1

[18] = tested on: NCI-H23
Procedure, shortened: as §1

[19] = tested on: NCI-H1993
Procedure, shortened: as §1

[20] = tested on: HOP-62
Procedure, shortened: as §1

[21] = tested on: COR-L23
Procedure, shortened: as §1

[22] = tested on: HCC-44
Procedure, shortened: as §1

[23] = tested on: LCLC-103H
Procedure, shortened: as §1

[24] = tested on: ABC-1
Procedure, shortened: as §1

[25] = tested on: NCI-H838
Procedure, shortened: as §1

In the case of CCCCCCCCCCCC1=C(O)C(=O)C=C(O)C1=O [Embelin] + O=C(c1cc(Cc2n[nH]c(=O)c3ccccc23)ccc1F)N1CCN(C(=O)C2CC2)CC1 [Olaparib] (partner 8 µM), the relative viability ([1]; first compound 0.08 µM) is reported as 0.749, the relative viability ([1]; first compound 0.8 µM) is reported as 0.779 and the relative viability ([1]; first compound 2.53 µM) is reported as 0.827. It also gave a relative viability ([1]; first compound 8 µM) of 0.713, a relative viability ([2]; first compound 0.08 µM) of 0.464 and a relative viability ([2]; first compound 0.8 µM) of 0.319. It also gave a relative viability ([2]; first compound 2.53 µM) of 0.441, a relative viability ([2]; first compound 8 µM) of 0.45 and a relative viability ([3]; first compound 0.08 µM) of 0.776. For the same molecule, the relative viability ([3]; first compound 0.8 µM) was 0.617, the relative viability ([3]; first compound 2.53 µM) was 0.75 and the relative viability ([3]; first compound 8 µM) was 0.774. The relative viability ([4]; first compound 0.08 µM) was 0.726, the relative viability ([4]; first compound 0.8 µM) was 0.727 and the relative viability ([4]; first compound 2.53 µM) was 0.706. For the same molecule, the relative viability ([4]; first compound 8 µM) was 0.677, the relative viability ([5]; first compound 0.08 µM) was 0.569 and the relative viability ([5]; first compound 0.8 µM) was 0.554. The relative viability ([5]; first compound 2.53 µM) was 0.586, the relative viability ([5]; first compound 8 µM) was 0.592 and the relative viability ([6]; first compound 0.08 µM) was 0.675. For the same molecule, the relative viability ([6]; first compound 0.8 µM) was 0.728, the relative viability ([6]; first compound 2.53 µM) was 0.678 and the relative viability ([6]; first compound 8 µM) was 0.727. It also gave a relative viability ([7]; first compound 0.08 µM) of 0.201, a relative viability ([7]; first compound 0.8 µM) of 0.166 and a relative viability ([7]; first compound 2.53 µM) of 0.166. For the same molecule, the relative viability ([7]; first compound 8 µM) was 0.191, the relative viability ([8]; first compound 0.08 µM) was 0.727 and the relative viability ([8]; first compound 0.8 µM) was 0.73. For the same molecule, the relative viability ([8]; first compound 2.53 µM) was 0.842, the relative viability ([8]; first compound 8 µM) was 0.777 and the relative viability ([9]; first compound 0.08 µM) was 0.482. The relative viability ([9]; first compound 0.8 µM) was 0.432, the relative viability ([9]; first compound 2.53 µM) was 0.459 and the relative viability ([9]; first compound 8 µM) was 0.427. For the same molecule, the relative viability ([10]; first compound 0.08 µM) was 0.474, the relative viability ([10]; first compound 0.8 µM) was 0.886 and the relative viability ([10]; first compound 2.53 µM) was 0.735. For the same molecule, the relative viability ([10]; first compound 8 µM) was 0.755, the relative viability ([11]; first compound 0.08 µM) was 0.539 and the relative viability ([11]; first compound 0.8 µM) was 0.486. It also gave a relative viability ([11]; first compound 2.53 µM) of 0.461, a relative viability ([11]; first compound 8 µM) of 0.443 and a relative viability ([12]; first compound 0.08 µM) of 0.771. The relative viability ([12]; first compound 0.8 µM) was 0.75, the relative viability ([12]; first compound 2.53 µM) was 0.737 and the relative viability ([12]; first compound 8 µM) was 0.722. It also gave a relative viability ([13]; first compound 0.08 µM) of 0.39, a relative viability ([13]; first compound 0.8 µM) of 0.327 and a relative viability ([13]; first compound 2.53 µM) of 0.342. It also gave a relative viability ([13]; first compound 8 µM) of 0.352, a relative viability ([14]; first compound 0.08 µM) of 0.73 and a relative viability ([14]; first compound 0.8 µM) of 0.675. The relative viability ([14]; first compound 2.53 µM) was 0.869, the relative viability ([14]; first compound 8 µM) was 0.733 and the relative viability ([15]; first compound 0.08 µM) was 0.826. The relative viability ([15]; first compound 0.8 µM) was 0.875, the relative viability ([15]; first compound 2.53 µM) was 0.853 and the relative viability ([15]; first compound 8 µM) was 0.902. For the same molecule, the relative viability ([16]; first compound 0.08 µM) was 0.575, the relative viability ([16]; first compound 0.8 µM) was 0.67 and the relative viability ([16]; first compound 2.53 µM) was 0.705. The relative viability ([16]; first compound 8 µM) was 0.678, the relative viability ([17]; first compound 0.08 µM) was 0.596 and the relative viability ([17]; first compound 0.8 µM) was 0.641. It also gave a relative viability ([17]; first compound 2.53 µM) of 0.521, a relative viability ([17]; first compound 8 µM) of 0.68 and a relative viability ([18]; first compound 0.08 µM) of 0.298. For the same molecule, the relative viability ([18]; first compound 0.8 µM) was 0.257, the relative viability ([18]; first compound 2.53 µM) was 0.344 and the relative viability ([18]; first compound 8 µM) was 0.274. The relative viability ([19]; first compound 0.08 µM) was 1.16, the relative viability ([19]; first compound 0.8 µM) was 1.07 and the relative viability ([19]; first compound 2.53 µM) was 1.21. It also gave a relative viability ([19]; first compound 8 µM) of 1.6, a relative viability ([20]; first compound 0.08 µM) of 0.29 and a relative viability ([20]; first compound 0.8 µM) of 0.253. The relative viability ([20]; first compound 2.53 µM) was 0.354, the relative viability ([20]; first compound 8 µM) was 0.451 and the relative viability ([21]; first compound 0.08 µM) was 0.373. For the same molecule, the relative viability ([21]; first compound 0.8 µM) was 0.352, the relative viability ([21]; first compound 2.53 µM) was 0.348 and the relative viability ([21]; first compound 8 µM) was 0.346. The relative viability ([22]; first compound 0.08 µM) was 0.989, the relative viability ([22]; first compound 0.8 µM) was 0.959 and the relative viability ([22]; first compound 2.53 µM) was 1.01. For the same molecule, the relative viability ([22]; first compound 8 µM) was 1, the relative viability ([23]; first compound 0.08 µM) was 0.762 and the relative viability ([23]; first compound 0.8 µM) was 0.796. For the same molecule, the relative viability ([23]; first compound 2.53 µM) was 0.802, the relative viability ([23]; first compound 8 µM) was 0.764 and the relative viability ([24]; first compound 0.08 µM) was 0.847. For the same molecule, the relative viability ([24]; first compound 0.8 µM) was 0.988, the relative viability ([24]; first compound 2.53 µM) was 0.805 and the relative viability ([24]; first compound 8 µM) was 0.871. It also gave a relative viability ([25]; first compound 0.08 µM) of 0.736, a relative viability ([25]; first compound 0.8 µM) of 0.83 and a relative viability ([25]; first compound 2.53 µM) of 0.883. For the same molecule, the relative viability ([25]; first compound 8 µM) was 0.766.
